Each structure is given as a SMILES string.

The target in this experiment is T1, angiotensin converting enzyme (Cavia porcellus, UniProt H0UWL7).
T1 construct: from tissue; host or cells: guinea pig ileum
T1 sequence (H0UWL7 33-1302): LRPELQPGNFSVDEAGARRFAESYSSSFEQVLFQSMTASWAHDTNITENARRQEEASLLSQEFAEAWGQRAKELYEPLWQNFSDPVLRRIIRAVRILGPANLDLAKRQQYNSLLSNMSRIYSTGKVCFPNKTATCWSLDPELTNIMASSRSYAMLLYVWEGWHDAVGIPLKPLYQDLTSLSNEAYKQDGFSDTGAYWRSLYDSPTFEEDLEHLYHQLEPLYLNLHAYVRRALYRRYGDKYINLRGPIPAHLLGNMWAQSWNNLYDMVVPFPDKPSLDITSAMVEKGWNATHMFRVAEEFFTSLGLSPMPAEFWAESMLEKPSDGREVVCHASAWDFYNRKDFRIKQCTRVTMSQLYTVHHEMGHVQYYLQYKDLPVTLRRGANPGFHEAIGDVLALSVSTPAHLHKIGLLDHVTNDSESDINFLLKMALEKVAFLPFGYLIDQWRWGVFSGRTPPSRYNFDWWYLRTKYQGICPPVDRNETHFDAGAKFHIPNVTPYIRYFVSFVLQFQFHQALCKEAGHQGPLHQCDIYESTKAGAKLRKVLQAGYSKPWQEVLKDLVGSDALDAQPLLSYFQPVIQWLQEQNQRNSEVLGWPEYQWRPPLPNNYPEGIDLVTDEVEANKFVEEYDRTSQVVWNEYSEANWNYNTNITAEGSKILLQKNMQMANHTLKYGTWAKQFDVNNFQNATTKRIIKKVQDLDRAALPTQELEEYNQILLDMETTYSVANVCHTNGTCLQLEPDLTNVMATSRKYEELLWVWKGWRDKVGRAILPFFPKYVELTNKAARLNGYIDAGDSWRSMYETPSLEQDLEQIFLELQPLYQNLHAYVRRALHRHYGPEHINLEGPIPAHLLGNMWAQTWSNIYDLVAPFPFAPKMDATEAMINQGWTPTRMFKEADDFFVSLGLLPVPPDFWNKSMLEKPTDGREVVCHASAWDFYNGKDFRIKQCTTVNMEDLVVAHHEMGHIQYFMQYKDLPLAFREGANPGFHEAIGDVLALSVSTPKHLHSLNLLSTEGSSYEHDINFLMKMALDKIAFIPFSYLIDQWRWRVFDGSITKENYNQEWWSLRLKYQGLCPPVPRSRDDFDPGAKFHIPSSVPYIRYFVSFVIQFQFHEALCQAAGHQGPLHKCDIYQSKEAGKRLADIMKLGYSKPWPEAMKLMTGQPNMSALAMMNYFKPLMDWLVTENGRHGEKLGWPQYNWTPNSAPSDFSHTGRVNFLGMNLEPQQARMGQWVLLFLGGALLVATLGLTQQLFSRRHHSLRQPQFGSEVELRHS
Put plainly: angiotensin converting enzyme inhibition in guinea pig ileum (inhibition of contractile responses to Angiotensin I). As to conditions: dose-dependent inhibition of contractile responses to Angiotensin I, read-out: EC50 (the source's name). From the text:
(b) ACE inhibition in vitro
In an assay for angiotensin converting enzyme inhibition in guinea pig ileum, dose-dependent inhibition of contractile responses to Angiotensin I gave the following results: […]

As to `CC(C)NCC(O)COc1cccc2cc(C(=O)NCCCC[C@H](NC(C)C(=O)N3CCC[C@H]3C(=O)O)C(=O)O)ccc12` (stereo partly drawn) [Example 2, N-(1(S)-Carboxy-5-[5-(2,(R,S)-hydroxy-3-isopropylaminopropoxy)naphth-2-ylcarboxamido]pentyl)-(R,S)-alanyl-(S)-proline bistrifluoroacetate], the IC50 turned out to be 13.5 nM.
Next, `CC(C)NC[C@H](O)COc1cccc2[nH]c(C(=O)NCCCC[C@H](N[C@@H](C)C(=O)N3CCC[C@H]3C(=O)O)C(=O)O)cc12` [Example 1, N-(1(S)-Carboxy-5-[4-(2(S)-hydroxy-3-isopropylaminopropoxy)-1H-indol-2-ylcarboxamido]pentyl)-(S)-alanyl-(S)-proline]: 1.4 nM; `CC(C)NCC(O)COc1cccc2ccc(C(=O)NCCCC[C@H](NC(C)C(=O)N3CCC[C@H]3C(=O)O)C(=O)O)cc12` (stereo partly drawn) [Example 3, N-(1(S)-Carboxy-5-[8-(2(R,S)-hydroxy-3-isopropylaminopropoxy)naphth-2--ylcarboxamido]pentyl)-(R,S)-alanyl-(S)-proline bistrifluoroacetate]: 10.3 nM.

For the origin of these results see EP0234946A2, “New compounds” (THE WELLCOME FOUNDATION LIMITED, priority 1986, dated 1987).
